# Earlier results, collected in US20130165511A1, “TREATMENT FOR COCAINE ADDICTION” (priority 2010, published 2013).
# Columns and labels:
# [1] = biological target: T1, ALDH-I (Homo sapiens, UniProt P05091)
# T1 sequence (P05091 18-517): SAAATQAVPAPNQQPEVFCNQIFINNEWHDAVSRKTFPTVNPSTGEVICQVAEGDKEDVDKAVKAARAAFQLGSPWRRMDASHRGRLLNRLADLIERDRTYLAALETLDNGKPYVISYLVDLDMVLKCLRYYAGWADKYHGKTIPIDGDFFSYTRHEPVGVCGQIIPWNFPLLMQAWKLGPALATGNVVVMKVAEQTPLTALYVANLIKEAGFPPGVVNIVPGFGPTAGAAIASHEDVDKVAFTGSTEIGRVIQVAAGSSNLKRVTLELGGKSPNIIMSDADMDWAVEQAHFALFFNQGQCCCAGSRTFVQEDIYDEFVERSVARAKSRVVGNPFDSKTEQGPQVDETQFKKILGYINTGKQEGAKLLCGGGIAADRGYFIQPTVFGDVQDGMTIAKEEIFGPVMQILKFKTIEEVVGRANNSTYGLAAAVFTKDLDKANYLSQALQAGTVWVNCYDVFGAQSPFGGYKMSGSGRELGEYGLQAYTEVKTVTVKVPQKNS
# [2] = biological target: CYP2D6 (Homo sapiens, UniProt P10635)
# Chain of CYP2D6 (P10635 whole entry): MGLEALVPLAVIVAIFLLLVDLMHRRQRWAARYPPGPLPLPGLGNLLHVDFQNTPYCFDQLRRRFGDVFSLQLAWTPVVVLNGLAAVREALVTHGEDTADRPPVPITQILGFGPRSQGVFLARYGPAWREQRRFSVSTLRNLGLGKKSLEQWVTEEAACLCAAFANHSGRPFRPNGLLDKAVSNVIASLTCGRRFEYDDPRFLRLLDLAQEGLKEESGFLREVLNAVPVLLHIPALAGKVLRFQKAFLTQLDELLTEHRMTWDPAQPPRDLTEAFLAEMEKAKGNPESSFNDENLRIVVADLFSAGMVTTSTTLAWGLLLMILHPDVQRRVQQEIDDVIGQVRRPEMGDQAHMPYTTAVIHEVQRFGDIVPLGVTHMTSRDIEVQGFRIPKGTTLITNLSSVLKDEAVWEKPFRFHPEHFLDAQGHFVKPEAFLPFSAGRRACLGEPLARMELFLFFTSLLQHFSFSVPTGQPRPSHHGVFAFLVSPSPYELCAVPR
# [3] = biological target: CYP2C19 (Homo sapiens, UniProt P33261)
# Chain of CYP2C19 (P33261 whole entry): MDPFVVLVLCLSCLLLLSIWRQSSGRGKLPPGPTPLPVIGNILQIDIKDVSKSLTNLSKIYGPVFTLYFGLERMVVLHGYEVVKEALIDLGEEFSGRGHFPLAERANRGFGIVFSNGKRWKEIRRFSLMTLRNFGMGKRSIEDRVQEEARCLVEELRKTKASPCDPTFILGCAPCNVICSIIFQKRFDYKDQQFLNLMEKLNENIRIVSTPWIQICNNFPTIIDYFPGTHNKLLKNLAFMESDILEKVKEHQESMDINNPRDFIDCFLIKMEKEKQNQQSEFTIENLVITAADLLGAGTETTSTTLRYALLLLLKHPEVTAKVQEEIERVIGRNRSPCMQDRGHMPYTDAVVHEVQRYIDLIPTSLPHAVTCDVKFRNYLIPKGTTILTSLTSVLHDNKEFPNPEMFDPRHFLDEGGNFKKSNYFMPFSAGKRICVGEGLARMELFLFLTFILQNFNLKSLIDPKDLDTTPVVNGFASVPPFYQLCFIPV
# [4] = biological target: T2, CYP2B6 (Homo sapiens, UniProt P20813)
# T2 sequence (P20813 1-491): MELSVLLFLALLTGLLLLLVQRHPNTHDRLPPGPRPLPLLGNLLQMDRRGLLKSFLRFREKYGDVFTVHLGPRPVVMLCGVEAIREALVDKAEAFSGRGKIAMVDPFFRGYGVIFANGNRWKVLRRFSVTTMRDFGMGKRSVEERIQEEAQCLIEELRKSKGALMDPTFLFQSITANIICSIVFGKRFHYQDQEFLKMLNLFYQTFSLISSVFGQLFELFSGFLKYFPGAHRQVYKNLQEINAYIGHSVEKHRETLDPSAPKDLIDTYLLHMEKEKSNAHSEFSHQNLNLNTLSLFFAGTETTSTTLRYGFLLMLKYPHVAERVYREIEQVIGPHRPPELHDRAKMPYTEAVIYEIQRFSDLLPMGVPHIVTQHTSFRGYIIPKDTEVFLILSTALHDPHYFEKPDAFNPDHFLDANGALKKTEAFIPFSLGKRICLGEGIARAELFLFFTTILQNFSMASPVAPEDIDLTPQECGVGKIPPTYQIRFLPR
# [5] = biological target: T3, ALDH-II (Homo sapiens, UniProt P00352)
# T3 sequence (P00352 1-501): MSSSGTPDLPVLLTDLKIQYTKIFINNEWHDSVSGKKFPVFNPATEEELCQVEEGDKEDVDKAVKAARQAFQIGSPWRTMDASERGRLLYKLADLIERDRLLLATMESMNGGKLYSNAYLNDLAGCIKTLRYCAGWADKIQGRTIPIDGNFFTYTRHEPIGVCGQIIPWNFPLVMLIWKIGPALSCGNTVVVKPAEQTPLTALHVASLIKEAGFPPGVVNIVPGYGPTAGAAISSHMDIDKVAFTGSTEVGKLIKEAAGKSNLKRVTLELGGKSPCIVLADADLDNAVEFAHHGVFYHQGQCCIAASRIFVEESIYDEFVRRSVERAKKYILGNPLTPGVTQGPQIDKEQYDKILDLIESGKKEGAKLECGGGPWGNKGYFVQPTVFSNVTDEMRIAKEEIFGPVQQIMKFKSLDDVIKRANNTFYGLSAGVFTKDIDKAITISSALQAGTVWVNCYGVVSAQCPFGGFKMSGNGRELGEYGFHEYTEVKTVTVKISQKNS
# [6] = 10 mg CR, double-blind randomized study of 134 subjects with cocaine dependence, post hoc analyses
# [7] = animal studies, dosage range 0.001-1.0 mg/kg
# [8] = tested on: ALDH; details: rat studies
# [9] = rat studies
compound,measurement,setting,value
"O=c1c(-c2ccc(O)cc2)coc2cc(O[C@@H]3O[C@H](CO)[C@@H](O)[C@H](O)[C@H]3O)ccc12 [Daidzin, daidzin]",inhibition of ALDH-I,[1],selective potent reversible inhibitor
C#CCNC(C)Cc1ccccc1 (centres unmarked) [N-des methyl selegiline],inhibition of CYP2D6,[2],concentration dependent inhibition
same,inhibition of CYP2C19,[3],concentration dependent inhibition
same,inhibition of CYP2B6,[4],concentration dependent inhibition
N#CN [cyanamide],inhibition of ALDH-I in vitro,[1]; in vitro,unable to inhibit
same,inhibition of ALDH-II in vitro,[5],unable to inhibit
C#CCN(C)[C@H](C)Cc1ccccc1 [selegiline],"self-reported 'high' and 'stimulated' feelings after cocaine administration, area under the curve","10 mg CR formulation, eight subjects",decreased
same,reduction in subjective euphoria,"selegiline 10 mg po/day followed by acute cocaine infusion, PET study",40%
same,"composite score of urine benzoylecgonine (BE), self report and observed improvement",[6],statistically significant effect
same,inhibition of CYP2D6,[2],concentration dependent inhibition
same,inhibition of CYP2B6,[4],concentration dependent inhibition
same,safety and abuse potential,[7],safe agent without potential abuse
N5-(hydroxycyclopropyl)-L-glutamine [coprine],ALDH inhibition compared to disulfiram,[8],more potent inhibitor
same,ethanol consumption,[9],effectively suppressed
